Where two headings read alike, the source gives them in different places. Non-standard residues stand in square brackets, D forms with d. Residues, ends and D or L forms follow the SMILES beside them.
What was measured:
BIV TAR RNA = assay: EMSA binding to BIV TAR; settings: positional scanning library, Table S1
Protocol: (§1) Electro Mobility Shift Assays (EMSA) and 2-aminopurine fluorescence ([35]) were used to measure peptide binding. For EMSA, all RNAs were 5′-dephosphorylated ([25],[26]) and 5′-rephosphorylated using T4 Polynucleotide Kinase (PNK); shifts were performed and analyzed as previously described ([14]). The P-TEFb/Tat1:57/AFF4 binding assays were run as described ([11]), with protein samples generously donated by Drs Ursula Schulze-Gahmen and James Hurley, but binding buffers contained 250× fold excess yeast tRNA. JB181-bound samples were prepared with 3× excess labeled HIV-TAR prior to titration with the pre-formed P-TEFb/Tat1:57/AFF4 complex.
(§2) Fig. S1. a) HIV-1 TAR, BIV TAR and 7SK-SL4 RNAs have similar secondary structures, but the JB181 peptide discriminates between them. […]
(§3) tightly than BIV TAR (3.3 nM) or 7SK (>3 μM) RNAs. b) EMSA of representative JB-peptides with 32P radiolabeled HIV-1 TAR RNA ([RNA]=75pM). The peptide concentration increases from left to right, as indicated. The dissociation constant can be estimated by the peptide concentration where there is an approximate 1:1 ratio (as established by visual inspection) between free RNA and complex, since the RNA concentration is much lower than the KD.
(§4) (1 picture or pasted object on this page, not shown here)

HIV-1 TAR RNA = format: binding; settings: EMSA, positional scanning library, Table S1
Protocol: as §1, §2, §3, §4

[1] = tested on: HIV-1 clone NLgNef in M7-luc cells; assay: Spreading infection (inhibition of viral spread); format: cell-based; settings: M7-luc cells infected with NLgNef
Protocol: A 5 × 10^6 5.25.EGFP.Luc.M7 cells (M7-luc, gift of N. Landau(36)) grown in Roswell Park Memorial Institute medium (RPMI) containing 25 mM 4-(2-hydroxyethyl)-1-piperazineethanesulfonic acid (HEPES) (GE Life Sciences, Pittsburgh, PA), 10% Fetal Bovine Serum (FBS) (Sigma, St. Louis, MO) and 100 μg/ml normocin (Invivogen, San Diego, CA) were infected with the HIV-1 strain NL43-GFP-IRES-Nef (NLgNef) that expresses Green Fluorescent Protein (GFP) and Nef on a bicistronic Nef messenger RNA (a gift of David Levy ([37])) at a low multiplicity of infection (<0.01 infectious units/cell). […] Forty-eight hours post peptide addition, the percentage of cells expressing GFP was determined by flow cytometry via BD Fortessa SORP (BD, Franklin Lakes, NJ). Flow cytometry data were analyzed using WinList 3D (Verity Software House, Topsham, ME). […]
To evaluate anti-viral potency, we tested compound JB181 for inhibition of viral spread (Figure 3A) by comparison with L22 and a linear peptide control (same sequence as L22 but not cyclized). […] Peptides were added 24 h post-infection and spread of infection determined after 72 h. […]
Figure 3. […] Three days post-infection, GFP expression was measured by flow cytometry. […] Twenty-four hours later, reactivation as monitored by GFP expression was measured by flow cytometry. […]

[2] = tested on: Jurkat clone E4 (latent HIV provirus with LTR-driven GFP); assay: Reactivation from latency; format: cell-based, HIV-1; settings: E4 Jurkat cells, peptides 0.39-100 μM, TNFα 1 ng/ml, GFP by flow cytometry 24 h later, triplicate
Protocol: A 5 × 10^4 cells/well of Jurkat clone E4 (in RPMI ([38])) were added to a 96-well plate at the same time as a dilution series of JB181, cyclic L22 and linear L22 (0.39, 1.56, 6.25, 25, 50 and 100 μM) in triplicate. Four hours following peptide addition, tumor necrosis factor α (TNFα) (1 ng/ml, Peprotech, Rocky Hill, NJ) was added to stimulate HIV-1 transcription. Twenty-four hours later, the percentage of cells expressing GFP was determined by flow cytometry as described above.
Figure 3. (A) M7-luc cells were infected with the replication competent HIV-1 clone NLgNef at very low titer. Three days post-infection, GFP expression was measured by flow cytometry. […] (B) JB181 inhibits HIV-1 reactivation from latency. Tat-dependent expression of GFP is repressed in E4 Jurkat cells, which serve as a model of HIV latency. These cells were pre-incubated for 2 h with L22 (cyclic, green), L22 (linear, blue) or JB181 (cyclic, red) at concentrations 0.5–100 μM, then stimulated for reactivation by TNFα at 1ng/ml. Twenty-four hours later, reactivation as monitored by GFP expression was measured by flow cytometry. […] (C) Biochemical RT inhibition assays were conducted as described previously ([31]) for peptides JB59, JB60, JB181 and L50 along with AZT. (D) Competition EMSA comparing affinity of the P-TEFb/Tat1:57/AFF4 complex for wild-type HIV-TAR with or without JB181 pre-bound to TAR. […]

JB181 (synthetic) = assay: EMSA
[3] = with tRNA, read-out: Kd (nM) w/tRNA
[4] = without tRNA, read-out: Kd (nM) no tRNA

Compound: CC[C@H](C)[C@@H]1NC(=O)[C@H](CCCNC(=N)N)NC(=O)[C@H](CCCNC(=N)N)NC(=O)CNC(=O)[C@H](CCCCN)NC(=O)[C@H](CCCNC(=N)N)NC(=O)[C@H]([C@@H](C)O)NC(=O)[C@H](CCCNC(=N)N)NC(=O)[C@H](C(C)C)NC(=O)[C@H](CCCCN)NC(=O)[C@@H]2CCCN2C(=O)[C@H]2CCCN2C(=O)[C@H]([C@@H](C)CC)NC(=O)[C@H](CCCNC(=N)N)NC1=O [JB-60] (cyclo(KVRTRKGRRIRI[dP]P))
- Kd (BIV TAR RNA): > 5000 nM
- Kd (HIV-1 TAR RNA; [3]): 300 nM
- Kd (HIV-1 TAR RNA; [4]): 3 nM

Compound: CC[C@H](C)[C@@H]1NC(=O)[C@H](CCCNC(=N)N)NC(=O)[C@H](CCCNC(=N)N)NC(=O)CNC(=O)[C@H](CCCCN)NC(=O)[C@H](CCCNC(=N)N)NC(=O)[C@H]([C@@H](C)O)NC(=O)[C@H](CCCNC(=N)N)NC(=O)[C@H](Cc2ccc(O)cc2)NC(=O)[C@H](CCCNC(=N)N)NC(=O)[C@@H]2CCCN2C(=O)[C@H]2CCCN2C(=O)[C@H]([C@@H](C)CC)NC(=O)[C@H](CCCNC(=N)N)NC1=O [JB-62] (cyclo(RYRTRKGRRIRI[dP]P))
- Kd (BIV TAR RNA): 10 nM
- Kd (HIV-1 TAR RNA; [3]): 150 nM
- Kd (HIV-1 TAR RNA; [4]): 1 to 5 nM

Compound: CC[C@H](C)[C@@H]1NC(=O)[C@H](CCCNC(=N)N)NC(=O)[C@H](CCCNC(=N)N)NC(=O)CNC(=O)[C@H](CCCCN)NC(=O)[C@H](CCCNC(=N)N)NC(=O)[C@H]([C@@H](C)O)NC(=O)[C@H](CCCNC(=N)N)NC(=O)[C@H](CC(N)=O)NC(=O)[C@H](CCCNC(=N)N)NC(=O)[C@@H]2CCCN2C(=O)[C@H]2CCCN2C(=O)[C@H]([C@@H](C)CC)NC(=O)[C@H](CCCNC(=N)N)NC1=O [JB-63] (cyclo(RNRTRKGRRIRI[dP]P))
- Kd (BIV TAR RNA): < 1 nM
- Kd (HIV-1 TAR RNA; [3]): 100 nM
- Kd (HIV-1 TAR RNA; [4]): 1 nM

Compound: CC[C@H](C)[C@@H]1NC(=O)[C@H](CCCNC(=N)N)NC(=O)[C@H](CCCNC(=N)N)NC(=O)CNC(=O)[C@H](CCCCN)NC(=O)[C@H](CCCNC(=N)N)NC(=O)[C@H]([C@@H](C)O)NC(=O)[C@H](CCCNC(=N)N)NC(=O)[C@H]([C@@H](C)O)NC(=O)[C@H](CCCNC(=N)N)NC(=O)[C@@H]2CCCN2C(=O)[C@H]2CCCN2C(=O)[C@H]([C@@H](C)CC)NC(=O)[C@H](CCCNC(=N)N)NC1=O [JB-65] (cyclo(RTRTRKGRRIRI[dP]P))
- Kd (BIV TAR RNA): < 1 nM
- Kd (HIV-1 TAR RNA; [3]): 50 nM
- Kd (HIV-1 TAR RNA; [4]): 1 nM

Compound: CC[C@H](C)[C@@H]1NC(=O)[C@H](CCCNC(=N)N)NC(=O)[C@H](CCCNC(=N)N)NC(=O)CNC(=O)[C@H](CCCCN)NC(=O)[C@H](CCCNC(=N)N)NC(=O)[C@H]([C@@H](C)O)NC(=O)[C@H](CCCNC(=N)N)NC(=O)[C@H](C)NC(=O)[C@H](CCCNC(=N)N)NC(=O)[C@@H]2CCCN2C(=O)[C@H]2CCCN2C(=O)[C@H]([C@@H](C)CC)NC(=O)[C@H](CCCNC(=N)N)NC1=O [JB-66] (cyclo(RARTRKGRRIRI[dP]P))
- Kd (BIV TAR RNA): 1 nM
- Kd (HIV-1 TAR RNA; [3]): 100 nM
- Kd (HIV-1 TAR RNA; [4]): 1 nM

Compound: CC[C@H](C)[C@@H]1NC(=O)[C@H](CCCNC(=N)N)NC(=O)[C@H](C)NC(=O)[C@H](CCCNC(=N)N)NC(=O)[C@H](CCCNC(=N)N)NC(=O)CNC(=O)[C@H](CCCCN)NC(=O)[C@H](CCCNC(=N)N)NC(=O)[C@H]([C@@H](C)O)NC(=O)[C@H](CCCNC(=N)N)NC(=O)[C@H](C(C)C)NC(=O)[C@H](CCCNC(=N)N)NC(=O)[C@@H]2CCCN2C(=O)[C@H]2CCCN2C1=O [JB-75] (cyclo(RVRTRKGRRARI[dP]P))
- Kd (BIV TAR RNA): 1 to 5 nM
- Kd (HIV-1 TAR RNA; [3]): 300 nM
- Kd (HIV-1 TAR RNA; [4]): 5 nM

Compound: CC[C@H](C)[C@@H]1NC(=O)[C@H](CCCNC(=N)N)NC(=O)[C@H](C(C)C)NC(=O)[C@H](CCCNC(=N)N)NC(=O)[C@H](CCCNC(=N)N)NC(=O)CNC(=O)[C@H](CCCCN)NC(=O)[C@H](CCCNC(=N)N)NC(=O)[C@H]([C@@H](C)O)NC(=O)[C@H](CCCNC(=N)N)NC(=O)[C@H](C(C)C)NC(=O)[C@H](CCCNC(=N)N)NC(=O)[C@@H]2CCCN2C(=O)[C@H]2CCCN2C1=O [JB-76] (cyclo(RVRTRKGRRVRI[dP]P))
- Kd (BIV TAR RNA): 1 nM
- Kd (HIV-1 TAR RNA; [3]): < 50 nM
- Kd (HIV-1 TAR RNA; [4]): 1 nM

Compound: CC[C@H](C)[C@@H]1NC(=O)[C@H](CCCNC(=N)N)NC(=O)[C@H](CCCNC(=N)N)NC(=O)CNC(=O)[C@H](CCCCN)NC(=O)[C@H](CCCNC(=N)N)NC(=O)[C@H]([C@@H](C)O)NC(=O)[C@H](CCCNC(=N)N)NC(=O)[C@H](C(C)C)NC(=O)[C@H](CCCNC(=N)N)NC(=O)[C@@H]2CCCN2C(=O)[C@H]2CCCN2C(=O)[C@H](C(C)C)NC(=O)[C@H](CCCNC(=N)N)NC1=O [JB-84] (cyclo(RVRTRKGRRIRV[dP]P))
- Kd (BIV TAR RNA): 1 nM
- Kd (HIV-1 TAR RNA; [3]): 50 nM
- Kd (HIV-1 TAR RNA; [4]): 1 nM

Compound: CC[C@H](C)[C@@H]1NC(=O)[C@H](CCCNC(=N)N)NC(=O)[C@H](CCCNC(=N)N)NC(=O)CNC(=O)[C@H](CCCCN)NC(=O)[C@H](CCCNC(=N)N)NC(=O)[C@H]([C@@H](C)O)NC(=O)[C@H](CCCNC(=N)N)NC(=O)[C@H](C(C)C)NC(=O)[C@H](CCCNC(=N)N)NC(=O)[C@@H]2CCCN2C(=O)[C@H]2CCCN2C(=O)[C@H](CC(C)C)NC(=O)[C@H](CCCNC(=N)N)NC1=O [JB-85] (cyclo(RVRTRKGRRIRL[dP]P))
- Kd (BIV TAR RNA): 1 nM
- Kd (HIV-1 TAR RNA; [3]): 50 nM
- Kd (HIV-1 TAR RNA; [4]): 5 nM

Compound: CC[C@H](C)[C@@H]1NC(=O)[C@H](CCCNC(=N)N)NC(=O)[C@H](CCCNC(=N)N)NC(=O)CNC(=O)[C@H](CCCCN)NC(=O)[C@H](CCCNC(=N)N)NC(=O)[C@H]([C@@H](C)O)NC(=O)[C@H](CCCNC(=N)N)NC(=O)[C@H](C(C)C)NC(=O)[C@H](CCCNC(=N)N)NC(=O)[C@@H]2CCCN2C(=O)[C@H]2CCCN2C(=O)[C@H]([C@@H](C)CC)NC(=O)[C@H](CCCNC(=N)N)NC1=O [Peptide L22] (cyclo(RVRTRKGRRIRI[dP]P))
- reduction of infection compared to no peptide controls ([1]; peptides 12.5 to 100 μM added 24 h post-infection, % GFP-expressing cells by flow cytometry, triplicate): > 50%
- inhibition of viral replication and spread (in words) ([1]; peptides 12.5 to 100 μM, GFP by flow cytometry): blocked replication and spread
- inhibition of HIV-1 reactivation from latency (in words) [2]: inhibit at similar levels
- inhibition of HIV-1 reactivation from latency (in words) ([2]; listed as cyclic L22): blocked reactivation

Compound: HIV-1 TAR G32A, G36A
- Kd (JB181 (synthetic)): < 0.166 nM

Compound: HIV-1 TAR G33A, G34A, G21A
- Kd (JB181 (synthetic)): 70 nM

Compound: HIV-1 TAR U25C
- Kd (JB181 (synthetic)): 1 nM

Reference: PMC6379670, “An ultra-high affinity ligand of HIV-1 TAR reveals the RNA structure recognized by P-TEFb” (Nucleic Acids Research, 2018)
